Results as given in patent publication US7868005B2, “Pyrazinyl substituted piperazine-piperidines with CXCR3 antagonist activity” (Schering Corporation, priority 2005, dated 2011).

Molecular target: T1, human CXCR3 (N-delta 4) (Homo sapiens, UniProt P49682)
T1 construct: CD8 leader (N); Flag; expressed in transfected cells; membranes prepared
T1 sequence (P49682 5-368 limits assumed): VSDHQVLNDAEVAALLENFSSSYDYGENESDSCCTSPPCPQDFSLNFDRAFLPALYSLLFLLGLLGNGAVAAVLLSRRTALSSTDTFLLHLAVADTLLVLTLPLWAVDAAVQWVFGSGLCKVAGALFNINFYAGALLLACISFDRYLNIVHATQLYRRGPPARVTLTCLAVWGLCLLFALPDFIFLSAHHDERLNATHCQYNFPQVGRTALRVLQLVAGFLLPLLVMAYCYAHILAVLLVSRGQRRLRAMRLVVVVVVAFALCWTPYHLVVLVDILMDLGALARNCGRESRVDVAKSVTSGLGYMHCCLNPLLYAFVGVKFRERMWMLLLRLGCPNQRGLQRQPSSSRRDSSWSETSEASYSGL
Assay: Human CXCR3 (N-delta 4) Scintillation Proximity Assay (SPA), [125I] IP-10 binding to Ba/F3-hCXCR3 membranes
Details: IC50 rating, Table 1; read-out: IC50

IC50, < 25 nM:
CC[C@H]1CN(c2nc(N)c(C(=O)N[C@H](C)CO)nc2Cl)CCN1C1CCN(C(=O)c2ccc(Cl)cc2)CC1 [compound 335], CC[C@H]1CN(c2ncc(C(N)=O)nc2C)CCN1C1CCN(C(=O)c2ccc(Cl)cc2)CC1 [compound 388], CC[C@H]1CN(c2nc(N)c(C(N)=O)nc2Cl)CCN1C1CCN(Cc2ccc(OC(F)(F)F)cc2)CC1 [compound 9], CC[C@H]1CN(c2nc(N)c(C(=O)NC3CC3)nc2Cl)CCN1C1CCN(Cc2ccc(Cl)cc2C(N)=O)CC1 [compound 82], CC[C@H]1CN(c2nc(N)c(C(=O)NC)nc2Cl)CCN1C1CCN([C@@H](C(=O)OC)c2ccc(Cl)cc2)CC1 [compound 69], CC[C@H]1CN(c2ncc(C(N)=O)nc2C)CCN1C1CCN(Cc2ccc(Cl)cc2)CC1 [compound 412], CC[C@H]1CN(c2nc(N)c(C(N)=O)nc2Cl)CCN1C1CCN(Cc2ccc(Cl)cc2C2CNC(=O)O2)CC1 (stereo partly drawn) [compound 385], CC[C@H]1CN(c2nc(N)c(C(N)=O)nc2Cl)CCN1C1CCN(Cc2ccc(Cl)cc2F)CC1 [compound 10], CC[C@H]1CN(c2nc(N)c(C(=O)NCCO)nc2Cl)CCN1C1CCN(Cc2ccc(OC(F)(F)F)cc2O)CC1 [compound 166], CC[C@H]1CN(c2nc(N)c(C(=O)NCCO)nc2Cl)CCN1C1CCN(Cc2ccc(Cl)cc2OCCNS(=O)(=O)N(C)C)CC1 [compound 147], CC[C@H]1CN(c2nc(N)c(C(=O)NCCO)nc2Cl)CCN1C1CCN([C@H](CO)c2ccc(Cl)cc2)CC1 [compound 128], CC[C@H]1CN(c2nc(N)c(C(=O)NCCO)nc2Cl)CCN1C1CCN(Cc2ccc(F)cc2F)CC1 [compound 158], CCNC(=O)c1cnc(N2C[C@H](CC)N(C3CCN(C(=O)c4ccc(Cl)cc4)CC3)C[C@H]2C)c(Cl)n1 [compound 474], CC[C@H]1CN(c2nc(N)c(C(=O)NC)nc2Cl)CCN1C1CCN(Cc2ccc(-n3cccn3)cc2)CC1 [compound 66]

IC50, 25 to 100 nM:
CC[C@H]1CN(c2nc(N)c(C(=O)NCCO)nc2Cl)CCN1C1CCN(C(=O)c2ccc(F)c(F)c2)CC1 [compound 318], CC[C@H]1CN(c2nc(N)c(C(=O)NCCNS(C)(=O)=O)nc2Cl)CCN1C1CCN(Cc2ccc(Cl)cc2C#N)CC1 [compound 253], CC[C@H]1CN(c2nc(N)c(C(=O)NC[C@H](C)O)nc2Cl)CCN1C1CCN(C(=O)c2ccc(Cl)cc2)CC1 [compound 319], CCNC(=O)c1nc(Cl)c(N2CCN(C3CCN(C(C)(C)c4ccc(Cl)cc4)CC3)[C@@H](CC)C2)nc1N [compound 104], CC[C@H]1CN(c2nc(NC(=O)N(C)C)c(C(=O)OC)nc2Cl)CCN1C1CCN(Cc2ccc(Cl)cc2)CC1 [compound 291], C[C@@H]1CN(C2CCN(Cc3ccc(Cl)cc3F)CC2)[C@@H](C)CN1c1cnc(C(=O)NC2CC2)cn1 [compound 94]

IC50, > 100 nM:
CC[C@H]1CN(c2nc(N)c(C(N)=O)nc2Cl)CCN1C1(C)CCN(Cc2ccc(Cl)cc2C(N)=O)CC1 [compound 281], CC[C@H]1CN(c2ncc(C(N)=O)nc2NC)CCN1C1CCN(C(=O)c2ccc(Cl)cc2)CC1 [compound 383], CC[C@H]1CN(c2nc(N)c(C(=O)NCCO)nc2Cl)CCN1C1CCN([C@H](C(=O)OC)c2ccc(F)c(F)c2)CC1 [compound 198], CC[C@H]1CN(c2nc(N)c(C(=O)NCCOCCO)nc2Cl)CCN1C1CCN(C(=O)c2ccc(Cl)cc2)CC1 [compound 327], CC[C@H]1CN(c2nc(N)c(C(=O)NC)nc2Cl)CCN1C1CCN(C(=O)c2ccc(-n3cccn3)cc2)CC1 [compound 353], CC[C@H]1CN(c2nc(N)c(C(=O)N[C@@H]3CCCNC3=O)nc2Cl)CCN1C1CCN(Cc2ccc(C#N)cc2)CC1 [compound 210], CC[C@H]1CN(c2nc(N)c(C(=O)NC)nc2Cl)CCN1C1CCN([C@@H](C(N)=O)c2ccc(Cl)cc2)CC1 [compound 76]
